In patent US20250287942A1, “FORMULATIONS FOR REPELLING BEES AND OTHER INSECTS” (priority 2022, published 2025):

Assays:
[1] = TGA volatility at 40 degrees Celsius (Example 3); format: physicochemical; conditions: isothermal at 40° C. for 900 minutes, slope from 800-900 minutes
Protocol: Volatility may be measured by Thermogravimetric Analysis (TGA) method. Volatility of bee repellent compounds is measured by TGA at 40° C. (i.e., as bee repellent wt % loss per min at 40° C.). In some variations, a “high volatility” bee repellent compound has a volatility greater than 1E-04 (wt % loss/min at 40° C.). In some variations, a “low volatility” bee repellent compound has a bee repellent volatility less than 1E-04 (wt % loss/min at 40° C.).
A TA Instruments TGA5500 was used to determine the volatility of bee repellent chemicals at 40 degrees Celsius. The sample purge was set for 25 mL/min and the balance purge is set for 10 mL/min. A 30 mg sample of the chemical was placed in the sample pan, the temperature was ramped up to 40° C. at a rate of 10° C./min and was held isothermal at 40° C. for 900 minutes. The slope was then determined from 800-900 minutes to determine its volatility. The volatility of bee repellent compounds were determined according to Table 6 below.

[2] = system: honey bee workers (Apis mellifera); assay: 2-choice plate (petri-dish arena) assay, honey vs honey plus repellent candidate; format: in vivo; conditions: 2-choice plate assay; for First choice Preference Index (repellent side): first visit and drink (repellent - solvent)/(repellent + solvent); for Honey consumption Preference Index (repellent side): plates where honeybees drank more honey from (repellent - solvent)/(repellent + solvent)
Protocol: To date, we used capped brood frames from 10 colonies kept in three apiaries on campus at UC Riverside. After moving the brood (pupated honey bee larvae) into an observation frame inside an incubator overnight, we collected freshly emerged honey bee workers into groups of 80 per cage, providing them with a small piece of wax foundation, 50% sugar water and tap water ad libitum. Between day 3 and day 10 post emergence, we provided them with a protein dough. We removed dead workers and exchanged food every second day. After the bees reached foraging age (13-19 days post emergence), we grouped them into cages of 40 workers, each. To ensure that they were hungry enough to participate in our trials, we starved the workers before each experiment, depending on their age. Between 13 and 16 days of age, we wet-starved them for 17 hours by removing the sugar water tube from their cage, replacing it with an empty vial. Bees aged between 17 and 19 days were starved for six hours, only, to ensure their survival. On the day of the experiment, we removed dead bees and food vials from each cage, and placed the cage into a refrigerator, until the trial arena was ready, and the bees were cool enough to not move anymore.
To turn a 15 cm petri-dish into a 2-choice test arena, we taped a paper-grid on the outside of its bottom, establishing one side as honey (H) and the other as honey plus repellent candidate (HR, FIG. 3). Next, we pipetted 20 ul of pure acetone onto a 6 mm punch-out of filter paper, then let it evaporate in the fume hood for at least 30 min. We then taped the punch-out to the H-spot on the petri-dish. Repeating the process with 20 ul of the repellent candidate (5% in acetone), again letting the acetone evaporate for at least 30 Min, we stuck the now solely repellent-candidate-soaked punch-out onto the HR spot of the arena. To entice the bees to participate in our trial, we used a pipette and filled two 70 ul lids of PCR tubes full of pure, slightly warmed honey, until we observed a meniscus. We then taped one honey-filled lid onto the H, the other onto the HR filter paper, being careful not to disturb the meniscus.
We placed six prepared arenas onto a heating pillow turned onto level 1 (FIG. 2B), removed the cooled honey bee workers from the fridge and grouped between four and five bees into each plate, using insect tweezers. We filmed the bees for 60 Minutes, using an ipad (video at wide-angle, 0.5). To avoid glare, we staged the ipad on top of a plexi glass pane held by a cage constructed from pvc tubes, and covered with a double cotton sheet.
After each trial, we counted those plates, in which the honey wells had been touched as participating plates. We repeated the trials often enough to ensure participation in a minimum of five plates per repellent candidate. For each of the participating plates, we then screened each video to find the first bee that chose a honey well to drink from. The choice was recorded as either Honey (H) or Honey and repellent candidate (HR). We then calculated a Preference Index for each repellent candidate as follows: Number of repellent candidate choices minus number of honey choices) divided by sum of all choices).
The negative indexes indicate, that the honey bee workers did avoid the repellent candidates, but to varying degrees. The preference indexes show the first choices of honey bee workers (Apis mellifera) offered honey on filter paper with repellent-candidates versus honey only. Groups of 4-5 honeybee workers were placed in each 2-choice arena. Indexes are calculated per repellent candidate as (total number of repellent choices minus total number of solvent choices) divided by sum of all choices).
Preference Indexes for repellent candidates were determined in a manner similar to that described in Example 1. […]

[3] = TGA volatility method of Example 4; format: physicochemical; conditions: 40° C. isothermal for 15 hours, slope between 800-900 minutes
Protocol: Two BR3.3A (liquid) and BR 4.5 (solid) bee repellents were used in this example for comparison. BR 3.3A has a relatively higher volatility compared to BR 4.5. A TGA method was developed to characterize volatility of bee repellents. The volatility was measured by setting up a TGA method. In the TGA pan, 0.30 mg+0.02 mg of the bee repellent of interest is applied in an even layer on the bottom of the TGA pan immediately before starting the measurement. The TGA is programmed to have a balance purge flow of 40 mL/min and a sample purge flow of 60 mL/min. The TGA ramps from 25° C. to 40° C. at a rate of 5° C. per minute. Then the temperature is held isothermally at 40° C. for 15 hours. After the test has been completed, the slope is calculated for the % loss per minute between 800-900 minutes and the results are reported. The smaller the slope, the less the volatility. The volatility of BR3.3A measured by the above method has a slope of −4.61E-03%/min, and the slope for BR4.5 is −1.81E-04%/min.

[4] = system: honey bees; assay: Field study on flowering buckwheat patches, honey bee counts; format: in vivo; conditions: emulsifiable concentrate sprayed at 4 kg/hectare; counts at 15 min, 30 min, 1 hour, 24 hours
Protocol: In this field study, 12 patches of buckwheat were planted, each measuring approximately 2 m×2 m in size in the agricultural operations field. When the flowering was estimated to be >50%, the experiments were performed. Each patch was divided into 2 approximately equal parts based on flowers by observation, one side for treatment spray and the other as control solvent (water) spray (FIG. 9A). The patches for different treatments were in a block design and the treatment side in a patch was randomly assigned as water or treatment (FIG. 9B). The test chemicals in emulsifiable concentrate form were dissolved in water in a tank to spray at the rate equivalent to 4 kg/hectare. After the spraying the numbers of honey bees present on each side of each patch was counted by 3 human observers at the following time points: 15 min, 30 min, 1 hour, 24 hours. The average number of bees at each time point were used to calculate the percentage decrease in numbers of bees on the treatment side relative to the water side and plotted (FIG. 9C).

SMILES | TGA volatility @ 40° C. (weight loss %/min) [1] [weight loss %/min] | % honey left on repellent side [2] [%] | First choice Preference Index (repellent side) [2] | Honey consumption Preference Index (repellent side) [2] | further results
CCCC(=O)CCc1ccccc1 [1-phenyl-3-hexanone] | 1.37E−02 | – | – | – | –
CCCCCCCCC(C)=O [2-Decanone, reference compound] | 0.1623 | – | – | – | –
CCNC(=O)c1cccc(Br)c1 [3-bromo-N-ethylbenzamide] | 1.40E−04 | – | – | – | –
COCCC(=O)Oc1ccccc1 [BR 3.1, Phenyl 3-methoxy-propanoate] | – | 99.17 | −0.8333 | −0.9166 | –
CCOC(=O)CC1CCc2ccccc21 (stereo not shown) [BR 3.3A, ethyl 2-(2,3-dihydro-1H-inden-1-yl)acetate] | – | 95.83 | −1 | −1 | slope, % loss per minute (TGA volatility) [3]: −4.61E-03 %/min
CCCC(=O)CCc1ccccc1 [BR 3.4, 1-Phenyl-3-hexanone] | – | 99.72 | −1 | −1 | –
CCCCCC(=O)c1ccccc1 [BR 3.5, Hexanophenone] | – | 100 | −1 | −1 | –
CCOCCC(=O)N1CCc2ccccc21 [BR 3.9, 1-(2,3-Dihydro-1H-indol-1-yl)-3-ethoxy-1-propanone] | – | – | −0.6 | −0.8 | –
CCOCCCNC(=O)c1ccccc1I [BR 3.30, N-(3-ethoxypropyl)(2-iodophenyl) carboxamide] | – | 80.45 | −0.733 | −0.8 | –
C/C(=C\C(=O)c1ccccc1)c1ccccc1 [BR 3.42, (2E)-1,3-Diphenyl-2-buten-1-on] | – | – | −0.772 | −0.727 | –
CCNC(=O)c1cccc(Br)c1 [BR 3.47, 3-bromo-N-ethylbenzamide] | – | 95.42 | −1 | −0.6666 | –
CCOC(=O)c1ccccc1I [BR 3.81, Ethyl 2-iodobenzoate] | – | 99.17 | −0.9 | −0.9 | numbers of honey bees on treatment side relative to water side [4]: showed a decrease in numbers of honey bees
O=C(/C=C/c1cccnc1)c1ccncc1 [BR 4.4, 3-(3-Pyridinyl)-1-(4-pyridinyl)-2-propen-1-one] | – | – | −0.7142 | −0.7143 | –
CC(C)OC(C(=O)c1ccccc1)c1ccccc1 (stereo not shown) [BR 4.5, 2-Isopropox y-1,2-diphenyl-ethanone] | – | – | −0.8947 | −0.8947 | slope, % loss per minute (TGA volatility) [3]: −1.81E-04 %/min
CCN(CC)C(=O)c1cccc(C)c1 [DEET, N,N-diethyl-meta-toluamide, reference compound] | 2.29E−03 | – | – | – | –
CCOC(=O)CNc1ccccc1C#N [Ethyl 2-(2-Cyanoanilino) acetate] | 4.04E−05 | – | – | – | –
CCOC(=O)c1ccccc1I [Ethyl 2-iodobenzoate] | 6.66E−03 | – | – | – | –
CCOC(=O)Cc1cccc(C)c1 [Ethyl m-Tolylacetate] | 2.73E−02 | – | – | – | –
CCCCCC(=O)c1ccccc1 [Hexanophenone] | 1.11E−02 | – | – | – | –
CCOCCCNC(=O)c1ccccc1I [N-(3-ethoxypropyl)-2-iodobenzamide] | 2.16E−05 | – | – | – | –
COCCC(=O)Oc1ccccc1 [Phenyl 3-methoxypropanoate] | 1.66E−02 | – | – | – | –
CCOC(=O)CC1CCc2ccccc21 (stereo not shown) [ethyl 2-(2,3-dihydro-1H-inden-1-yl) acetate] | 4.61E−03 | – | – | – | –
